Test [1] has as its target T1, Proto-oncogene tyrosine-protein kinase Src (Homo sapiens, UniProt P12931). Put plainly: Selectivity interaction (Kinase panel (Z-LYTE Assay)) EUB0001632a SRC. The conditions noted are these: at 10 µM.
Test [2] addresses Mitogen-activated protein kinase kinase kinase kinase 4 (Homo sapiens, UniProt O95819). Put plainly: Selectivity interaction (KinomeScan (DiscoverX)) EUB0001619a MAP4K4. The note with it: at 1 µM.
Test [3] has as its target Insulin receptor-related protein (Homo sapiens) (UniProt P14616). Description: Selectivity interaction (Kinase panel (Invitrogen)) EUB0000639a INSRR. The note with it: at 200 nM.
The target of test [4] is T2, Serine/threonine-protein kinase TBK1 (Homo sapiens) (UniProt Q9UHD2).
T2 sequence (whole entry): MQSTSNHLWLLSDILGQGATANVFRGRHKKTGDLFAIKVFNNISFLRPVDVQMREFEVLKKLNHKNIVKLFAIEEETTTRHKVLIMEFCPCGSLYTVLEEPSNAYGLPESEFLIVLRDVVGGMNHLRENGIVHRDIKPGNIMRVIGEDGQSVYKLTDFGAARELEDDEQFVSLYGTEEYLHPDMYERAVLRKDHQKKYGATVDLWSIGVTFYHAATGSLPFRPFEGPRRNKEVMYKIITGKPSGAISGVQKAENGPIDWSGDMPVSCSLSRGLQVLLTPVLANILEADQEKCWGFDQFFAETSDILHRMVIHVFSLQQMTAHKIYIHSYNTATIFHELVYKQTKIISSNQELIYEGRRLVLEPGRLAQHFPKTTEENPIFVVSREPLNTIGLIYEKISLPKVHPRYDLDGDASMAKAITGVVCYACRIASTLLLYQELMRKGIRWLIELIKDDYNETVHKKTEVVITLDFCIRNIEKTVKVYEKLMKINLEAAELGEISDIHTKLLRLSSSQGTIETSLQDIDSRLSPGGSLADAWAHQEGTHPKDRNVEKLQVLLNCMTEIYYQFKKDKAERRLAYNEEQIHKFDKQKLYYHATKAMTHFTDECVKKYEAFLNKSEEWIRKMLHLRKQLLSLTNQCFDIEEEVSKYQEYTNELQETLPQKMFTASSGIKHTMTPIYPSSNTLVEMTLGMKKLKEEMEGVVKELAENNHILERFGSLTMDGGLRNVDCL
Put plainly: Selectivity interaction (Ambit KINOMEscan and KiNATiv profiling in Jurkat cells) EUB0000090b TBK1. The format is cell-based. The conditions noted are these: at 1 µM.

The target of test [5] is Mitogen-activated protein kinase 1 (Homo sapiens, UniProt P28482).
Test [6] deals with T1, Proto-oncogene tyrosine-protein kinase Src. Description: Selectivity interaction (Upstate Kinase Profiler service (Millipore)) EUB0000056c SRC. The note with it: at 1 µM.
The target of a further test is D(2) dopamine receptor (Homo sapiens, UniProt P14416). Put plainly: Selectivity interaction (Dopamine D2 receptor assay, human recombinant ) EUB0000877a DRD2.
Another test concerns the target Insulin receptor (Homo sapiens, UniProt P06213). Description: Selectivity interaction (Kinase panel (33PanQinase(R) Activity Assay)) EUB0000877a INSR.
The target in test [7] is T3, Ephrin type-A receptor 1 (Homo sapiens) (UniProt P21709).
T3 sequence (whole entry): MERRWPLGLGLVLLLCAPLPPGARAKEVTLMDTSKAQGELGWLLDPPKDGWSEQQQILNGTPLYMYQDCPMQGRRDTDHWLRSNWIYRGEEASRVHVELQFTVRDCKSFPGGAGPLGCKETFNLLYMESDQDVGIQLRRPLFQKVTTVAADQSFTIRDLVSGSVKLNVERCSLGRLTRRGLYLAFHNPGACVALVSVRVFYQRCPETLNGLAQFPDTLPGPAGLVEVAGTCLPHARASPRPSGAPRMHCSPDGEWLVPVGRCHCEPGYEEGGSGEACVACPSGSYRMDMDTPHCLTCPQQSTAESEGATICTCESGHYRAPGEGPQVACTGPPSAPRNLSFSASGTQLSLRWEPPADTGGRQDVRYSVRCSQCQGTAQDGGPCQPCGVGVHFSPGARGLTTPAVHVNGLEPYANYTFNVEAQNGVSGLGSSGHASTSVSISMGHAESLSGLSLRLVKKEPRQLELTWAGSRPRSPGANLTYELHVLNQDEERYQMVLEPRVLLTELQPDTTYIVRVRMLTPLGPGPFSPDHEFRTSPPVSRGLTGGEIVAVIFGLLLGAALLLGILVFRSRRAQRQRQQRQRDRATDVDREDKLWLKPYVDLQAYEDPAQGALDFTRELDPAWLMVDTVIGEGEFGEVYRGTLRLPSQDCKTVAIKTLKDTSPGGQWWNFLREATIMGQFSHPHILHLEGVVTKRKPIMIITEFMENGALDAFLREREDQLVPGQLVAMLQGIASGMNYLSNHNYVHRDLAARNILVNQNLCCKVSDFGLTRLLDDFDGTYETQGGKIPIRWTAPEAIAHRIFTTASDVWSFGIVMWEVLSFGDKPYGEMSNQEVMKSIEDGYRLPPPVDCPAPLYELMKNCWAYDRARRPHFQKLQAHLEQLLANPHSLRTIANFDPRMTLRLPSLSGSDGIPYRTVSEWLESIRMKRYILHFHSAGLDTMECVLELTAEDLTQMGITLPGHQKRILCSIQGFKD
Put plainly: Selectivity interaction (KinomeScan (DiscoverX)) EUB0000618a EPHA1. The conditions noted are these: at 10 µM.

In test [8] the target is T4, cGMP-dependent protein kinase 2 (Homo sapiens) (UniProt Q13237).
T4 sequence (whole entry): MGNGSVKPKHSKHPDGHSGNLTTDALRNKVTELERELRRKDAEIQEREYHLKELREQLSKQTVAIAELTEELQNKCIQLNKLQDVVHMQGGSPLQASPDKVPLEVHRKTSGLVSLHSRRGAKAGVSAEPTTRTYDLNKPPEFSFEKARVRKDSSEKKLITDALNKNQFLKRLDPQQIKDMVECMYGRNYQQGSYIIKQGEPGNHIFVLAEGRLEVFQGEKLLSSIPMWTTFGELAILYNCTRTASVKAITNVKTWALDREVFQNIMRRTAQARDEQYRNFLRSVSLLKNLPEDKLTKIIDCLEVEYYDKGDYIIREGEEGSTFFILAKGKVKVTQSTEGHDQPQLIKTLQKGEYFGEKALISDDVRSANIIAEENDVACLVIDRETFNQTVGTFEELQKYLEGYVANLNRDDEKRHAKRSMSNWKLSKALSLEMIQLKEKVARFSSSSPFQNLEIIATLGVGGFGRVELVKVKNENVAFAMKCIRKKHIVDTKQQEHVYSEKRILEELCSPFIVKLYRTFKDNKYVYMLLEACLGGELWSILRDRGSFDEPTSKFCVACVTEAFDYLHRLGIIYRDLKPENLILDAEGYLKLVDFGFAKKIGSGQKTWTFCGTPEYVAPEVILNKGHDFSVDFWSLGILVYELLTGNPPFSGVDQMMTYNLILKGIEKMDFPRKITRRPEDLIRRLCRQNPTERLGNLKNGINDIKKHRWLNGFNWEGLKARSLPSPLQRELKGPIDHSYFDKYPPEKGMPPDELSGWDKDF
Description: Selectivity interaction (KinomeScan (DiscoverX)) EUB0001079a PRKG2. The conditions noted are these: at 1 µM.

pIC50: −log10 of the molar value. Some results are limits rather than exact numbers.

T1 sequence (P12931 2-536 limits assumed): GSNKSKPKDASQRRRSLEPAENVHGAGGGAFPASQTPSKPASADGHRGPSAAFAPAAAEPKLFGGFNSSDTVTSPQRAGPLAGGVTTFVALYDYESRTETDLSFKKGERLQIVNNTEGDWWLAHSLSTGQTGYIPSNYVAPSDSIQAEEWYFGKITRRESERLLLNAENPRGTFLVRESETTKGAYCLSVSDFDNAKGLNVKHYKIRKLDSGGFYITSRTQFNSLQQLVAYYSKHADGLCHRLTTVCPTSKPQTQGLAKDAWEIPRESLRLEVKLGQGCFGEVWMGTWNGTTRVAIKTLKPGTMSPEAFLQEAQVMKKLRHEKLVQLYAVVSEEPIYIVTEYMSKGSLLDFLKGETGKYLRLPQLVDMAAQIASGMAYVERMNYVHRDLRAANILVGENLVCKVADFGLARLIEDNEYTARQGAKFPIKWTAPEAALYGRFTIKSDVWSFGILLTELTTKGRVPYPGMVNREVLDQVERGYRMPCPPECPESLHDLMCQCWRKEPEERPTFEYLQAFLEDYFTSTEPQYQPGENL
Mitogen-activated protein kinase 1, sequence (P28482 whole entry): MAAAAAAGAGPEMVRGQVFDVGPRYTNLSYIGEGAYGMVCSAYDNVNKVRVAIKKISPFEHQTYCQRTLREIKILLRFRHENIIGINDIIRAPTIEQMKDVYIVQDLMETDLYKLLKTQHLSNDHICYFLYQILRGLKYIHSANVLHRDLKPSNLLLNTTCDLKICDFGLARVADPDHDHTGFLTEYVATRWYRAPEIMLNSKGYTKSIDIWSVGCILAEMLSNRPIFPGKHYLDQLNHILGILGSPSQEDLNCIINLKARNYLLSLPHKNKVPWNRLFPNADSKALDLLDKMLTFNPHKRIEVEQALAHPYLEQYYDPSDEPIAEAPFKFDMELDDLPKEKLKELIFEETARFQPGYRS
D(2) dopamine receptor, sequence (P14416 whole entry): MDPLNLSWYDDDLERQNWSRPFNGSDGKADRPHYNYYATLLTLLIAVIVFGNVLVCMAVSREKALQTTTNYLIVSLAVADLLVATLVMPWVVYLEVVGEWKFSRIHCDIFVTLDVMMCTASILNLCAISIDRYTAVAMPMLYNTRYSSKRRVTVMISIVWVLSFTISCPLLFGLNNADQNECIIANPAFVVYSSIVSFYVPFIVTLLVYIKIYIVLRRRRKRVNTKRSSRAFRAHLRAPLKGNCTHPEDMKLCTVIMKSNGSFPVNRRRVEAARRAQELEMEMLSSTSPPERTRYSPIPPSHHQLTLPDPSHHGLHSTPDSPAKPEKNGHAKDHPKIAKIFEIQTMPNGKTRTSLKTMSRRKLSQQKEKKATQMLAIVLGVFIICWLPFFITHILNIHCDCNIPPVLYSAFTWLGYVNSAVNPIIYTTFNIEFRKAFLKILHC
Insulin receptor, sequence (P06213 28-758 limits assumed): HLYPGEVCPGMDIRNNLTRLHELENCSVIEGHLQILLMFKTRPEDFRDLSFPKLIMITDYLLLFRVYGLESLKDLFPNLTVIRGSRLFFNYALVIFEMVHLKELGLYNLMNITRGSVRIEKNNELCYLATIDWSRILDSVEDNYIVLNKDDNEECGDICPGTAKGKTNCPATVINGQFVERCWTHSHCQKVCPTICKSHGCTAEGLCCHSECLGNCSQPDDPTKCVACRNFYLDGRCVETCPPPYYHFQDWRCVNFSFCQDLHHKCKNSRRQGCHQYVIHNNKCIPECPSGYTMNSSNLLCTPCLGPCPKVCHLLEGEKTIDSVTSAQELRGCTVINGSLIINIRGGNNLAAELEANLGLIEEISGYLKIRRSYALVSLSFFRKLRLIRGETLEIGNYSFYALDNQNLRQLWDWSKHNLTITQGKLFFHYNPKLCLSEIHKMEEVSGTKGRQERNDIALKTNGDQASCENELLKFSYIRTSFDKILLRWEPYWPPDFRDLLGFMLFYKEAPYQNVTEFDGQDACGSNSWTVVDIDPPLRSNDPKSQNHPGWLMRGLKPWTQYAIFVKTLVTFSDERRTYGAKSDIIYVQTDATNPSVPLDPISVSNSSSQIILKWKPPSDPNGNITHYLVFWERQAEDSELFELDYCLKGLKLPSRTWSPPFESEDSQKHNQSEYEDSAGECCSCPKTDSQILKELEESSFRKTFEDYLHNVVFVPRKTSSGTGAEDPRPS
Insulin receptor, sequence (P06213 763-1382 limits assumed): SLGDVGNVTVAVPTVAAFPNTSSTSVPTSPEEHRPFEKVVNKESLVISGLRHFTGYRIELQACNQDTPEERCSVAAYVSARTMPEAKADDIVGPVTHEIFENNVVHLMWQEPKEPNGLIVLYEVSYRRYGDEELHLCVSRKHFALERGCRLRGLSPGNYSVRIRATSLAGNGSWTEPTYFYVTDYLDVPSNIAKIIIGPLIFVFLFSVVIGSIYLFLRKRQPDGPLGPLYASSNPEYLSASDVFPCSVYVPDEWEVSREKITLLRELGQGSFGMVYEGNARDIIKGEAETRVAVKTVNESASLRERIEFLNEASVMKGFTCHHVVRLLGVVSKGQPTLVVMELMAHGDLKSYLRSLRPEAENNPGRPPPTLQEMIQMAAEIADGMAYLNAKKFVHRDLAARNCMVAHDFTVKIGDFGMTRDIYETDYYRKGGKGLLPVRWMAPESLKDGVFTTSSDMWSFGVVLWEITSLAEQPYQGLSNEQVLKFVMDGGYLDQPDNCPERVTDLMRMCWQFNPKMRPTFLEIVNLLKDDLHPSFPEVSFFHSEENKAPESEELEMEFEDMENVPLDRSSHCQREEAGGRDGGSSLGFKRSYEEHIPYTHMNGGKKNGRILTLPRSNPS
Mitogen-activated protein kinase kinase kinase kinase 4, sequence (O95819 2-1239 limits assumed): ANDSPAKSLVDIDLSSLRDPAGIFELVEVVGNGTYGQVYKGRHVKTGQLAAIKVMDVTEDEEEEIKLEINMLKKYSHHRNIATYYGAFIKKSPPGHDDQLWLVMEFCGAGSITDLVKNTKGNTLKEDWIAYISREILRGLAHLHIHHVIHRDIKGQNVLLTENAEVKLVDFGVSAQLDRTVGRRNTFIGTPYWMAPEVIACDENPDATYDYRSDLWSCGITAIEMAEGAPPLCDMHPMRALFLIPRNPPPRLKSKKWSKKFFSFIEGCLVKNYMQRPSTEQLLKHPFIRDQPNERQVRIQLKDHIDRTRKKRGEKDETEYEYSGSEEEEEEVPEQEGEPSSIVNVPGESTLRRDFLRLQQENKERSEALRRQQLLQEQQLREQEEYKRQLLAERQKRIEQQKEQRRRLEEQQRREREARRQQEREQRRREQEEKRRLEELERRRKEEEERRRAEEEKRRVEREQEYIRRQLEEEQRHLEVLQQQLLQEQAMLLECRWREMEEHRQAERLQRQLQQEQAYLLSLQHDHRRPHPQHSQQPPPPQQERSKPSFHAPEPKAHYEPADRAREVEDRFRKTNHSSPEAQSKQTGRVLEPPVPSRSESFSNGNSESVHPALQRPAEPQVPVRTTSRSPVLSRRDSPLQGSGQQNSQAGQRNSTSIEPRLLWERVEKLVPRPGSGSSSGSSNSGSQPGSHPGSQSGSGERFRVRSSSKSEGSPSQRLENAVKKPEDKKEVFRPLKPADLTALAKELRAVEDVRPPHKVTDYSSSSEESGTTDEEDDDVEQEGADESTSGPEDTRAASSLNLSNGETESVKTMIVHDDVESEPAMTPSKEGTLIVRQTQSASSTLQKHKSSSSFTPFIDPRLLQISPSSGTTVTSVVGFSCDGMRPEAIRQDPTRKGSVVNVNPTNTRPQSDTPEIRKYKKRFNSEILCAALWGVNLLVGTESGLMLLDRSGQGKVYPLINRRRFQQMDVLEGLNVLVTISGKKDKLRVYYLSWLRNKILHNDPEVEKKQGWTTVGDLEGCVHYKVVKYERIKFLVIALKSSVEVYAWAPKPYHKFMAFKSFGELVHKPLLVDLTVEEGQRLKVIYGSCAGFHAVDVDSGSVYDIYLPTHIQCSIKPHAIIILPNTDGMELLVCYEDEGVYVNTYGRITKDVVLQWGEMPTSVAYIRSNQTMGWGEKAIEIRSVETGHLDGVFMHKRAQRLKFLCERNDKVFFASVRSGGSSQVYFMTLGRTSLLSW

`Cn1cc(-n2cnc3c(NCc4nc5cc(Cl)c(Cl)cc5[nH]4)nc(N4CCOCC4)nc32)cn1` registered a % of control in [1] of 12.1%.
`N#Cc1cccc(-c2c[nH]c3ncnc(N4CCOCC4)c23)c1` came in with a % of control in test [2] of 71%.
`CC[C@@H]1[C@H](F)C(=O)N[C@@H]1COc1nccc2cc(C(N)=O)c(OC)cc12` [ZIMLOVISERTIB] displayed a % of inhibition in test [3] of 2.97%.
As to `CN(C)C/C=C/C(=O)Nc1ccc(C(=O)N2CCCC(Nc3ncc(Cl)c(-c4c[nH]c5ccccc45)n3)C2)cc1` (stereo not given), the % of control in test [4] is 96%.
The term pIC50 denotes −log10 of the IC50, conventionally taken in molar units. For `CCc1cccc(CC)c1NC(=O)c1nn(C)c2c1CCc1cnc(Nc3ccc(C(=O)NC4CCN(C)CC4)cc3OC(F)(F)F)nc1-2`, the pIC50 in [5] is below 5.00.
Regarding `Cc1ccc(-c2ccc3c(ccc4sc5c(c43)NC[C@@H](C)NC5=O)n2)cn1`, the % of inhibition in test [6] was found to be 12%.
With `CCC(=O)N1CC[C@H](Nc2ncnc3c2CN(c2cnc(OC)c(C(F)(F)F)c2)CC3)C1` [LENIOLISIB], the figures for the pIC50 on D(2) dopamine receptor and at Insulin receptor were below 4.52 and below 5.00, respectively.
In turn, `O[C@H]1CC[C@H](Nc2ncc3nc(Nc4c(F)cc(F)cc4F)n([C@H]4CCOC4)c3n2)CC1` registered a % of control in test [7] of 100%.
On to `Nc1cnc(N2CCc3cc(S(=O)(=O)Nc4c(F)cc(Cl)cc4F)cc(N4CCCC4=O)c32)nc1` [TP-020n], for which the % of control in test [8] came out at 84%.

Values taken from ChEMBL document CHEMBL5465560, “Selectivity Literature for EUbOPEN Chemogenomic Library” (2024).
